Experimental data published in patent US11401555B2, “Genetic polymorphisms associated with stroke, methods of detection and uses thereof” (CELERA CORPORATION, priority 2008, dated 2022).

Assay: Stroke statin response (SSR) in the CARE pravastatin trial: pravastatin-treated versus placebo-treated, by SNP genotype
Type: in vivo, human
Settings: for HR (hazard ratio for stroke, pravastatin vs placebo): rs10757274 (hCV26505812), mode GEN, genotype AA, placebo = ref
Excerpt: (hCV26505812) for association with SSR in CARE (Table 37) and PROSPER (Table 38), including both unadjusted and adjusted analyses (adjusted for factors such as age, gender, smoking status, hypertension, diabetes, BMI, and LDL and HDL levels). Table 37 provides results in CARE, and Table 38 provides results in PROSPER (whether each analysis is unadjusted or adjusted is indicated in the “adjust” column in Table 37, or by “unadj” and “adj” column labels in Tables 38). With respect to Tables 22-32 and 37-38, the columns labeled “Genotype” (in Tables 22-28 and 37), “Geno_Placebo” (in Tables 29-30 and 38), and “Geno_Resp” (in Tables 31-32 and 38) indicate the genotype which the given stroke risk or SSR results correspond to. […] See Example Six below for further information relating to Tables 22-32 and 37-38. […] As used herein, the term “benefit” (with respect to a preventive or therapeutic drug treatment) is defined as achieving a reduced risk for a disease that the drug is intended to treat or prevent (e.g., stroke) by administrating the drug treatment, compared with the risk for the disease in the absence of receiving the drug treatment (or receiving a placebo in lieu of the drug treatment) for the same genotype. The term “benefit” may be used herein interchangeably with terms such as “respond positively” or “positively respond”. For stroke risk and statin response associations based on samples from the CARE and PROSPER trials described herein, stroke risk is assessed by comparing the risk of stroke for a given genotype with the risk of stroke for a reference genotype either in the placebo arm of the trial or in the whole study population of the trial, and statin response is assessed by comparing the risk of stroke in the pravastatin arm of the trial with the risk of stroke in the placebo arm of the trial for the same genotype. […] In CARE, SNPs were analyzed for association with stroke risk or SSR. […] Also in the CARE and PROSPER trials, the chromosome 9p21 SNP […] (hCV26505812) was analyzed further for association with SSR, including unadjusted and adjusted analysis. Adjusted analysis in CARE (Table 37) was adjusted for age, gender, smoking status, hypertension, diabetes, body mass index (BMI), and LDL and HDL levels, and adjusted analysis in PROSPER (Table 38) was adjusted for country, gender, age, LDL, HDL, smoking status (current vs. past or never), history of hypertension, and diabetes. Table 37 provides results in CARE, and Table 38 provides results in PROSPER (whether each analysis is unadjusted or adjusted is indicated in the “adjust” column in Table 37, or by “unadj” and “adj” column labels in Tables 38). All the p-values (including Pint values) provided in Tables 37-38 are two-sided p-values.

## CC[C@H](C)C(=O)O[C@H]1C[C@H](O)C=C2C=C[C@H](C)[C@H](CC[C@@H](O)C[C@@H](O)CC(=O)O)[C@H]21 [pravastatin]
Heterozygous carriers of SNP rs10757274 (chromosome 9p21), adjusted for traditional risk factors
  HR (hazard ratio) for stroke events, pravastatin-treated versus placebo-treated: 0.61
Adjusted (age, male, current smoking, hypertension, diabetes, BMI, baseline LDL, HDL)
  HR (hazard ratio for stroke, pravastatin vs placebo): 0.92
unadjusted
  HR (hazard ratio for stroke, pravastatin vs placebo): 0.85
rs10757274, adjusted analysis, mode REC, genotype GA + AA, pravastatin arm, total 1018
  EVENTS (number of stroke events): 47
